Patent EP1049466B1, “CARBONIC ANHYDRASE INHIBITOR FOR INCREASING OXYGEN TENSION IN THE OPTIC NERVE AND RETINA” (Stefansson, Einar, priority 1998, dated 1999)

How the values were obtained:
[1] = intravenous administration; cited from earlier work
[2] = oral; blue field entopic technique; cited from earlier work
[3] = Continuous arterial blood pressure recording in the experimental pigs; format: in vivo, Danish agricultural pigs (landrace); details: after intravenous injection of 500 mg (Figure 7)
Experimental: Danish agricultural pigs (landrace), 25-33 kg in weight and brought up in specific pathogen free environment, were used. Their treatment was supervised by a veterinarian and followed the decrees of the ARVO Statement for the use of animals in ophthalmic and vision research. All experiments were conducted during daytime. The pigs were anaesthetised with midazolam (dormicum®) and ketamine followed by intravenous application of 250 mg mebumal, fentanylum (Haldid®, Jansen Cilag), 0.5 mg an hour, pancuron bromide (Pavulon®, Organon Technica, Sweden) 16 mg an hour, mebumal (Hospital Pharmacies, Denmark) 50 mg per ml as needed and atropine as needed. The right pupil was dilated with 1% tropicamide eye drops (Mydriacyl® and 2.5% phenylephrine eye drops. A arterial line was placed in a femoral artery for continuous measurement of blood pressure and intermittent blood gas analysis. A venous line was placed in a femoral vein for continuous infusion of the anaesthetics and saline as needed. A rectal thermoprobe provided continuous reading of body temperature.
Arterial blood samples were obtained at regular intervals and arterial PO2, pH and PCO2 were measured with a ABL 605 blood gas analyser (Radiometer, Denmark) (table 1). Arterial blood pressure, electrocardiogram and rectal temperature were monitored continuously and it was verified that these values were within normal limits. […]

optic nerve = assay: Oxygen tension of optic nerve (ONPO2), polarographic electrode in the vitreous humour 0.5 mm over the optic disc of anaesthetised pigs; format: in vivo, Danish agricultural pigs (landrace)
Experimental: The pig was secured laterally on an operating table and a speculum was placed between the right eyelids. A conjunctival peritomy was performed and 3-0 silk sutures placed under the rectus muscle tendons to immobilise the eye. A sclerotomy was made 2.5 mm behind the limbus in the superonasal quadrant and a cannula placed, through which the polarographic electrode was advanced into the vitreous cavity. The electrode was held in a micromanipulator (Stoelting Inc. USA) and placed in the vitreous humour approximately 0.5 mm over the optic disc in an area not covered by the large vessels. The entire operation was performed using a Zeiss operating microscope and the electrode was placed using an indirect ophthalmoscope or the microscope and a flat corneal contact lens.
A silver-silver chloride reference electrode was placed in the conjunctival sac of the same (right) eye and kept moist with saline. The polarographic oxygen meter consists of a 100 micrometer platinum-iridium electrode inside a 20 gauge needle (Model 761), a silver-silver chloride reference electrode and a chemical microsensor (Model 1251, Diamond Electrotech Inc., Ann Arbor Mich., USA). The recording system was calibrated before and after each experiment in a calibration cell (Diamond Electrotech. Inc.) at 37 degrees Celsius in 0.9% saline using 100% N2, 5.0%02-95%N2 and 20.000%02-80%N2 (provided by AGA Inc. Denmark). The barometric pressure was monitored, and the oxygen tension recordings were adjusted for barometric pressure, and expressed as mmHg.
The experiments were all run with typical indoor illumination (white fluorescent light tubes (Philips TLM 4OW/29RS)). The ambient light intensity at the level of the pig's eye was measured with a Mavolux digital light meter (Gossen GmbH, Germany) and found to be 497 lux or 6 watt per square meter.
Each experiment was begun with the animal breathing 100% oxygen. Once a stable ONPO2 level was obtained the breathing mixture was changed to air, containing 21% oxygen, and a stable level obtained again. In some experiments the breathing mixture was changed to 20.000% O2 followed by 5.19% CO2, 19.9% O2 (N2 to balance), followed by 20.000% O2.
Polarographic oxygen electrodes were placed in the vitreous humour 0.5 mm above the optic disc in anaesthetized pigs. Arterial blood pressure and gasses were monitored and ONPO was recorded continously with various breathing gasses.

[4] = intravenous; cited from earlier work
[5] = cited from earlier work

Row | Compound | cerebral blood flow [1] | macular blood flow [2] | arterial blood pressure [3] | ONPO2 after injection (optic nerve; after 500 mg intravenous injection, anaesthetised pigs, mean ± SD) | ONPO2 before injection (optic nerve; baseline before 500 mg intravenous injection, anaesthetised pigs, mean ± SD) | dose dependence of the effect on ONPO2 (optic nerve; intravenous, dorzolamide effect seen with 6 to 500 mg (Figures 4 and 8)) | raised the optic nerve oxygen tension by (optic nerve; summary over the doses given, anaesthetised pigs, n=4 each, p=0.046 (dorzolamide), p=0.005 (acetazolamide)) | retinal blood flow [4] | flow velocity in the intracranial arteries ([5]; in vivo) | flow velocity in the ophthalmic artery ([5]; in vivo) | ocular pulsatile blood flow ([5]; mainly originating from the choroidal circulation) | ONPO2 in response to breathing 5.19% CO2 (optic nerve; breathing 5.19% CO2 and 19.9% O2 (N2 to balance), n=4, p<0.001) | ONPO2 before breathing 5.19% CO2 (optic nerve; breathing 20% O2, n=4)
1 | CC(=O)Nc1nnc(S(N)(=O)=O)s1 [acetazolamide] | increased | no effect | transient lowering | 30.9± 10.0 mmHg | 23.6± 9.5 mmHg | dose dependent | 15-35% | increased | increased | decrease | decrease |  | 
2 | CO2 |  |  |  |  |  |  |  |  |  |  |  | 28.9 ± 3.6 mmHg | 20.8 ± 5.6 mmHg
